# Test results published in US20250170104A1, “INHIBITORS OF PSEUDOMONAS AERUGINOSA VIRULENCE FACTOR Lasß” (priority 2022, published 2025).
# Like-named read-outs stand apart in the source and are kept apart here.
# Key:
# [1] = Cytotoxicity assay; type: cell-based; details: human
# Procedure: HepG2, HEK293 or A549 cells (2×10^5 cells per well) were seeded in 24-well, flat-bottomed plates. Culturing of cells, incubations, and OD measurements were performed as described previously (Int. J. Cancer 2007, 121, 206-210). Twenty-four hours after seeding the cells, the incubation was started by the addition of test compound in a final DMSO concentration of 1%. The living cell mass was determined after 48 h. At least two independent measurements were performed for each compound.
# [2] = molecular target: LasB (Pseudomonas aeruginosa (strain ATCC 15692 / DSM 22644 / CIP 104116 / JCM 14847 / LMG 12228 / 1C / PRS 101 / PAO1), UniProt P14756); experiment: In vitro LasB activity assay (fluorogenic substrate); type: biochemical; details: LasB 0.3 nM, substrate 150 μM, mean ± SD
# Sequence of LasB (P14756 198-498): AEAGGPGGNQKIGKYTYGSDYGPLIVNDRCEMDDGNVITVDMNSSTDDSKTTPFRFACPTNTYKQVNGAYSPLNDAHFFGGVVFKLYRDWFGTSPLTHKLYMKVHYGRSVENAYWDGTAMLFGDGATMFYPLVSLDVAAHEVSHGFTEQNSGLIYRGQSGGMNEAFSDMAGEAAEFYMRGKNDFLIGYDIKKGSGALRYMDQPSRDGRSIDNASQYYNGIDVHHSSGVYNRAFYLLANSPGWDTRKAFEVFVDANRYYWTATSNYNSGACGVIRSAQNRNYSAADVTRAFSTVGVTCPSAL
# Procedure: The LasB activity assay was performed as described previously (Nishino N, Powers J C. Pseudomonas aeruginosa elastase. Development of a new substrate, inhibitors, and an affinity ligand. J Biol Chem. 1980 Apr. 25; 255(8):3482-6) using the fluorogenic substrate 2-Aminobenzoyl-L-Alanyl-Glycyl-L-Leucyl-L-Alanyl-para-Nitro-Benzyl-Amide, purchased from Peptides International (Louisville, KY, USA) and vivitide, LLC (Gardner, MA, USA).
# Fluorescence intensity was measured for 60 min at 37° C. in black 384-well microtiter plates (Greiner BioOne, Kremsmünster, Austria) using a CLARIOstar microplate reader (BMG Labtech, Ortenberg, Germany) with an excitation wavelength of […] and an emission wavelength of 415±20 nm. The assay was performed in a final volume of 50 μL of assay buffer (50 mM Tris, pH 7.2, 2.5 mM CaCl2), 0.075% Pluronic F-127, 5% DMSO) containing LasB at a final concentration of […] 0.3 nM and the substrate at 150 μM. Before substrate addition, compounds were preincubated with the enzyme at 37° C. for 15 min. Experiments were performed in duplicates and repeated for at least two times. Blank controls without enzyme were performed. After blank subtraction, the slope of samples containing inhibitors (v) was divided by the slope of a simultaneously started uninhibited enzymatic reaction (v0). IC50 values were determined with nonlinear regression using GraphPad Prism 5 (Graph Pad Software, San Diego, CA, USA) and are given as mean values ±standard deviation (SD). The slope factor was constrained to 1.
# [3] = molecular target: HDAC8 (Homo sapiens (Human), UniProt Q9BY41); experiment: HDAC inhibition; type: biochemical; details: read-out: Selectivity IC50 HDAC8
# Sequence of HDAC8 (Q9BY41 whole entry): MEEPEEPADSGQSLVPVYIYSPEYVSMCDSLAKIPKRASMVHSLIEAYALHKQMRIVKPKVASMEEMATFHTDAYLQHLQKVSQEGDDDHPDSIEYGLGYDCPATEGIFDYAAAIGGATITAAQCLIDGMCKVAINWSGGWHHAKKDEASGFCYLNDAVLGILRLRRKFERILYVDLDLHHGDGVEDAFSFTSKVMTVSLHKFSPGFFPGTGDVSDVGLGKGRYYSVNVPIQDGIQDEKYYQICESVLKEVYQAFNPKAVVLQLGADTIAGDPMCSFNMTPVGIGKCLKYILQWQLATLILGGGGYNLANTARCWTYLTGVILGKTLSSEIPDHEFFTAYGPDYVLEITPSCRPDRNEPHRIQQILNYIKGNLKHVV
# Procedure: (§1) HDAC3 and HDAC8 Inhibitor Screening Assay kits were purchased from Sigma-Aldrich. The assay was performed according to the guidelines of the manufacturer using trichostatin as a positive control. Fluorescence signals were measured in a CLARIOstar plate reader (BMG Labtech).
# [4] = molecular target: HDAC3 (Homo sapiens (Human), UniProt O15379); experiment: HDAC inhibition; type: biochemical; details: read-out: Selectivity IC50 HDAC3
# Sequence of HDAC3 (O15379 whole entry, looked up): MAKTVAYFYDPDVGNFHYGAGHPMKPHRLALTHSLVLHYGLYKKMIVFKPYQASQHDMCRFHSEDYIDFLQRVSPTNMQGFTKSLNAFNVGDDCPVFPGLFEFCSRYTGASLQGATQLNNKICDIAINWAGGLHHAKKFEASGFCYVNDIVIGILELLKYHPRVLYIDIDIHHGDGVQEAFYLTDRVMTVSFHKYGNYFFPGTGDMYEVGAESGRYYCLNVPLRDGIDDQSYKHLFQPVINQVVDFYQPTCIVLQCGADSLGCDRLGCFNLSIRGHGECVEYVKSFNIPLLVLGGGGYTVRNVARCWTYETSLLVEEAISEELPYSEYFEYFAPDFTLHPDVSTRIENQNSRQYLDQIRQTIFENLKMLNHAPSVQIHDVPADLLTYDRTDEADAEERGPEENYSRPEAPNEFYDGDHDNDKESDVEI
# Sequence of HDAC3 (Q9Y618 whole entry partner, looked up): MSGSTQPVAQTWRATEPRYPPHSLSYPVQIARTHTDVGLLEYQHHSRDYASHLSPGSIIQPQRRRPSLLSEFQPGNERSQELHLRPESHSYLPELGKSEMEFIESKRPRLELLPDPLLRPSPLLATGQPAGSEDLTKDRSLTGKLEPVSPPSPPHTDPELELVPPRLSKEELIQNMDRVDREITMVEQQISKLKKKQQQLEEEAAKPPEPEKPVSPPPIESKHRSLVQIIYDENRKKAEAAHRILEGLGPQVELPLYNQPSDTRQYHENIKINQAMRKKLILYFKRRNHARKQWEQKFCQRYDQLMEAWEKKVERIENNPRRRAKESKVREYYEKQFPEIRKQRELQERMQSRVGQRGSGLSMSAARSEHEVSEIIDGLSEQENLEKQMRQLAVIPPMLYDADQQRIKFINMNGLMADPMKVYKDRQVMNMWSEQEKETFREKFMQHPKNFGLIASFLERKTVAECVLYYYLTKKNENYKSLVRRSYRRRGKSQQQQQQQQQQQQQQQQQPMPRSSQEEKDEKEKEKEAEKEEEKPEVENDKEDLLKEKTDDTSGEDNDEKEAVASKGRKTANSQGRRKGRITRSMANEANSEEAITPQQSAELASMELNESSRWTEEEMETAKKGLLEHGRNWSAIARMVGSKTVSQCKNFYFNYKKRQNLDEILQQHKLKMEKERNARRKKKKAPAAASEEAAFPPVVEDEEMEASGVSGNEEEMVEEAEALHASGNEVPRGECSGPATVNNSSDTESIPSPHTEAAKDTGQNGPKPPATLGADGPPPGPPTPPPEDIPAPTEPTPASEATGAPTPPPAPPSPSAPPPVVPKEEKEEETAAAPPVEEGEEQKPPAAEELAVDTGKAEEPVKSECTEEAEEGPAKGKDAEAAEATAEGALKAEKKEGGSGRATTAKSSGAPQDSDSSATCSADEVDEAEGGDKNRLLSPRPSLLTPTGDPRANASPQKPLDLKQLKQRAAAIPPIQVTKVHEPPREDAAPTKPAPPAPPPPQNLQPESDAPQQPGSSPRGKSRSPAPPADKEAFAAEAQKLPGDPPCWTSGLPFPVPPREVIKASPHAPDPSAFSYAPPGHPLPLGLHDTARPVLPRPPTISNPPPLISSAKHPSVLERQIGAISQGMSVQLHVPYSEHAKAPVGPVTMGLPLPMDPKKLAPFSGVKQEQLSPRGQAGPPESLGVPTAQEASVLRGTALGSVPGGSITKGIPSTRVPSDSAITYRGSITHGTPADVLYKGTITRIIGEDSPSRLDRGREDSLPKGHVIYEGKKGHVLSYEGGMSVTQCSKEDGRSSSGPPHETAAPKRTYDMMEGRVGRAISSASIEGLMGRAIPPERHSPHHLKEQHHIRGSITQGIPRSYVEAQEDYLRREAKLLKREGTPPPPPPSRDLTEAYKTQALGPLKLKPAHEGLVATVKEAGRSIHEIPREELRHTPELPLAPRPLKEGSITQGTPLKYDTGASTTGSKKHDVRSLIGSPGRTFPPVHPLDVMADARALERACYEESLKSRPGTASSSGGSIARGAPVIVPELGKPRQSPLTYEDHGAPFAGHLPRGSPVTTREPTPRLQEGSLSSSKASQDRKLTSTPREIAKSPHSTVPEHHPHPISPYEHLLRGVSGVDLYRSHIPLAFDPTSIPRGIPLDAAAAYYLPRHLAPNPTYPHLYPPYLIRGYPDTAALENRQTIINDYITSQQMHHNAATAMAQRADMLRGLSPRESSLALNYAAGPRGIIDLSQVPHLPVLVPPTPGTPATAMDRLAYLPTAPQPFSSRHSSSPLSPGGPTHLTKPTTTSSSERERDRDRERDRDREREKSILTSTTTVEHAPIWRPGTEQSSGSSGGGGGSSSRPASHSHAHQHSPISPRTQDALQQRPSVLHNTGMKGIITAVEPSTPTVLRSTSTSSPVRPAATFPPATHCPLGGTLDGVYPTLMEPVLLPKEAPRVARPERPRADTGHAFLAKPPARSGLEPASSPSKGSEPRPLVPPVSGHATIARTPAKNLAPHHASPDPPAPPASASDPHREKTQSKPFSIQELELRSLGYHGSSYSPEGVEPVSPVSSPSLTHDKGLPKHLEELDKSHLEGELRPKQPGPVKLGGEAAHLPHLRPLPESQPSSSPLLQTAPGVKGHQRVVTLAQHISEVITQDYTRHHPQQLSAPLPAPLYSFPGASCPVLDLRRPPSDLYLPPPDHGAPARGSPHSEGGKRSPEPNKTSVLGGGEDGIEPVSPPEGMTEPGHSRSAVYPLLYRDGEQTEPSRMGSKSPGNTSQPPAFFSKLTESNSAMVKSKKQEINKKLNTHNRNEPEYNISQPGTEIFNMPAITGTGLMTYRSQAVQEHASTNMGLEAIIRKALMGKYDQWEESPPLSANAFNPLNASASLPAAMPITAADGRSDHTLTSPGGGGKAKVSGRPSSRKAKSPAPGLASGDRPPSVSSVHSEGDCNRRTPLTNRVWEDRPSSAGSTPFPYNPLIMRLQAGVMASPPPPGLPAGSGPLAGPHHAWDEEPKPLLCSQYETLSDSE
# Procedure: as §1
# [5] = in vitro; type: in vitro ADME; details: mouse, s9
# Procedure: For the evaluation of combined phase I and phase II metabolic stability, the compound (1 μM) was incubated with 1 mg/mL pooled liver S9 fraction (Xenotech), 2 mM NADPH, 1 mM UDPGA, 10 mM MgCl2, 5 mM GSH and 0.1 mM PAPS at 37° C. for 0, 5, 15, 30 and 60 min. The metabolic stability of Testosterone (1 μM), verapamil (1 μM) and ketoconazol (1 μM) were determined in parallel to confirm the enzymatic activity of the S9 fraction. The incubation was stopped by precipitation of S9 enzymes with 2 volumes of cold acetonitrile containing internal standard (150 nM Diphenhydramine). Samples were stored on ice for 10 min and precipitated protein was removed by centrifugation (15 min, 4° C., 4,000 rpm). The remaining test compound at different time points was analyzed by LC-MS/MS (TSQ Quantum Access MAX, Thermo Fisher, Dreieich, Germany) and used to determine half-life (t½).
# [6] = molecular target: MMP1 (Homo sapiens (Human), UniProt P03956); experiment: Selectivity assay: inhibition of MMPs; type: biochemical
# Sequence of MMP1 (P03956 100-469): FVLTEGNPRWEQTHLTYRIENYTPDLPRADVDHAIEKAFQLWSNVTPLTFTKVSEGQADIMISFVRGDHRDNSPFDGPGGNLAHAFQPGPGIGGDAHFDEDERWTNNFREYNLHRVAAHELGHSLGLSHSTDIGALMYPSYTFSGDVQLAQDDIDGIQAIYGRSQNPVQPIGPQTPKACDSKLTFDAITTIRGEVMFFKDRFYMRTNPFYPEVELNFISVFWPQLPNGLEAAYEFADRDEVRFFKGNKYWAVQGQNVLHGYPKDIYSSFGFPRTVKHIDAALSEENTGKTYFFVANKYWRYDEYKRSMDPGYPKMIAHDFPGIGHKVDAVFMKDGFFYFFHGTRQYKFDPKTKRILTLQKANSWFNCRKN
# Procedure: (§2) MMPs-1, -2, -3, -7, -8 and -14 along with the SensoLyte 520 Generic MMP Activity Kit*Fluorimetric* were purchased from AnaSpec (Fremont, CA, USA). The assay was performed as described previously (Schönauer E, Kany A M, Haupenthal J, Hüsecken K, Hoppe I J, Voos K, et al. Discovery of a Potent Inhibitor Class with High Selectivity toward Clostridial Collagenases. J Am Chem Soc. 2017 Sep. 13; 139(36):12696-703) using batimastat as a positive control according to the guidelines of the manufacturer.
# [7] = molecular target: MMP3 (Homo sapiens (Human), UniProt P08254); experiment: Selectivity assay: inhibition of MMPs; type: biochemical
# Sequence of MMP3 (P08254 100-477): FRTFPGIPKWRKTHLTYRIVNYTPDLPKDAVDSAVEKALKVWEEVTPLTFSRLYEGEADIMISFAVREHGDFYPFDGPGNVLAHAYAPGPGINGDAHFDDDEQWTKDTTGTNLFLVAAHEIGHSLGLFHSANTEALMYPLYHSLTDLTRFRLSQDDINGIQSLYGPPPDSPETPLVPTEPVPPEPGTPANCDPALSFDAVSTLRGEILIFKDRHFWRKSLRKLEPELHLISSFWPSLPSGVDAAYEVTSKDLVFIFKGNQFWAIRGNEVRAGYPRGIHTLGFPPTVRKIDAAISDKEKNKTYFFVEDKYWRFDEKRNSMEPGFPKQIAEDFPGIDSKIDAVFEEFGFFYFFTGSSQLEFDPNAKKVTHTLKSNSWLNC
# Procedure: as §2
# [8] = molecular target: MMP2 (Homo sapiens (Human), UniProt P08253); experiment: Selectivity assay: inhibition of MMPs; type: biochemical
# Sequence of MMP2 (P08253 110-660): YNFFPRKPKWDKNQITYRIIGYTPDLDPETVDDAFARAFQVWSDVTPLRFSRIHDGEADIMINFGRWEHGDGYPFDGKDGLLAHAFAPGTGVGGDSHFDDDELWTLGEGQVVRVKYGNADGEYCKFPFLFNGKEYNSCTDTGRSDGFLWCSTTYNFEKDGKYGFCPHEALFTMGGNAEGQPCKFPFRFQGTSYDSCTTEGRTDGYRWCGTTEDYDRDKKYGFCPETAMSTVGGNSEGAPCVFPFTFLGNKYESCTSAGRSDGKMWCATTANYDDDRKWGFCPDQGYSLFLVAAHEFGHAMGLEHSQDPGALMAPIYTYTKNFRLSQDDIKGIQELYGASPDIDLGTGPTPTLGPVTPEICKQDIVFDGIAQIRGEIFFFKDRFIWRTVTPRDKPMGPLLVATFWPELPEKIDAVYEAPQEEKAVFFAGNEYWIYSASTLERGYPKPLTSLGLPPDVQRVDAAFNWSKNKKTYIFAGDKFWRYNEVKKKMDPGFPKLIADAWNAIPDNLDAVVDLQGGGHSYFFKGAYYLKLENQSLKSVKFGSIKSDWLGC
# Procedure: as §2
# [9] = molecular target: ADAM-17 (TACE) (Homo sapiens (Human), UniProt P78536); experiment: ADAM-17 (TACE) inhibitor screening assay; type: biochemical; details: read-out: Selectivity IC50 TACE
# Procedure: The ADAM-17 (TACE) Inhibitor Screening Assay Kit was purchased from Sigma-Aldrich. The assay was performed according to the guidelines of the manufacturer using ilomastat as a positive control. Fluorescence signals were measured in a CLARIOstar plate reader (BMG Labtech).
# [10] = Kinetic turbidimetric solubility assay; type: physicochemical; details: PBS, aqueous buffer, kinetic from dmso stock
# Procedure: The desired compounds were sequentially diluted in DMSO in a 96-well plate. 1.5 μL of each well were transferred into another 96-well plate and mixed with 148.5 μL of PBS. Plates were shaken for 5 min at 600 rpm at room temperature, and the absorbance at 620 nm was measured. Absorbance values were normalized by blank subtraction and plotted using GraphPad Prism 8.4.2 (GraphPad Software, San Diego, CA, USA). Solubility (S) was determined based on the First X value of AUC function using a threshold of 0.005.
# [11] = tested on: P. aeruginosa PA-14; experiment: MIC determination assay / antibacterial activity; type: cell-based; details: Pseudomonas aeruginosa, PA14
# Procedure: Assays regarding the determination of the minimum inhibitory concentration (MIC) were performed as described previously (Elgaher W A M, Fruth M, Groh M, Haupenthal J, Hartmann R W. Expanding the scaffold for bacterial RNA polymerase inhibitors: design, synthesis and structure-activity relationships of ureido-heterocyclic-carboxylic acids. RSC Adv. 2013 Dec. 3; 4(5):2177-94). The experiments were based on the P. aeruginosa strain PA14. For the case that no MIC value could be determined due to activity reasons, percentage (%) inhibition at 100 μM (or lower, depending on the solubility of the compounds) was calculated. The OD600 was measured 0 and 16 h after inhibitor addition in a CLARIOstar Platereader (BMG Labtech, Ortenberg, Germany).
# [12] = tested on: P. aeruginosa PAO1 (strain DSM22644); experiment: G. mellonella larvae survival after PAO1 infection; type: in vivo; details: for Final survival percentage of larvae: 3 CFU/Larva, 24 h
# Procedure: Bacteria were grown overnight, diluted to OD600 of 0.025 in 10 ml medium, and grown for approx. 2 hours at 37° C. inside a shaker incubator until the OD600 of 1.8-2 is reached. The culture was then serially diluted in sterile PBS (pH=7.2). Bacterial densities of 3000, 300, 30, and 3 CFU/Larva were selected for injection into groups of 15 larvae. A total volume of 5 μl was injected into each larva via the hindmost left proleg by using a syringe pump and Sterican® needles (0.30×12 mm, 30G×½). In addition, control group without injection for the quality of the larvae and a PBS control to monitor the effect of the injection were included in the experiment. All test groups and control groups were incubated at 37° C. in the dark and monitored every 2 hours from 17 hours post-infection.
# In vivo evaluation of compounds 162 and 169. Bacteria were cultured and prepared according to the previous section. Final concentrations of 50 μM, 25 μM, and 12.5 μM in combination with 3 CFU/Larva were injected into groups of 15 larvae. In addition to no injection and PBS controls, one group was infected with 3 CFU/Larva and considered the negative control. All test groups and control groups were incubated at 37° C. in the dark and monitored every 2 hours from 17 hours post-infection.
smiles,measurement,setting,value
"CC(C)CC(C(=O)NO)C(=O)Nc1ccc(Cn2cc(CNS(=O)(=O)c3ccc(F)cc3)nn2)cc1 (stereo not drawn) [Compound 160, N-[4-[[4-[[(4-Fluorophenyl)sulfonylamino]methyl]triazol-1-yl]methyl]phenyl]-2-(hydroxycarbamoyl)-4-methyl-pentanamide]",IC50 at 48 h,[1]; A549 cells,> 100 µM
same,IC50 at 48 h,[1]; HEK293 cells,> 100 µM
same,IC50 at 48 h,[1]; HepG2 cells,> 100 µM
same,IC50,[2],0.0038 ± 0.0001 µM
same,IC50,[3],> 100 µM
same,IC50,[4],> 100 µM
same,half-life at 1 μM,[5],65.5 ± 0.7 min
same,IC50,[6],> 100 µM
same,IC50,[7],> 100 µM
same,IC50,[8],> 100 µM
same,IC50,[9],> 100 µM
same,solubility at 5 min,[10],> 200 µM
same,IC50,[11],> 100 µM
"CC(C)CC(C(=O)NO)C(=O)Nc1ccc(Cn2cc(CN(C)S(=O)(=O)c3ccc(I)cc3)nn2)cc1 (stereo not drawn) [Compound 131, 2-(Hydroxycarbamoyl)-N-[4-[[4-[[(4-iodophenyl)sulfonyl-methyl-amino]methyl]triazol-1-yl]methyl]phenyl]-4-methyl-pentanamide]",IC50,[2],0.0023 ± 0.0001 µM
same,half-life at 1 μM,[5],37.5 ± 2.5 min
same,solubility at 5 min,[10],< 200 µM
"CC(C)CC(C(=O)NO)C(=O)Nc1ccc(Cn2cc(CNS(=O)(=O)c3ccc(Cl)c(Cl)c3)nn2)cc1 (stereo not drawn) [Compound 165, N-[4-[[4-[[(3,4-Dichlorophenyl)sulfonylamino]methyl]triazol-1-yl]methyl]phenyl]-2-(hydroxycarbamoyl)-4-methyl-pentanamide]",IC50,[2],0.0016 ± 0.0001 µM
same,half-life at 1 μM,[5],10.7 ± 0.6 min
same,solubility at 5 min,[10],117 µM
"CC(C)CC(C(=O)NO)C(=O)Nc1ccc(CN=[N+]=[N-])cc1 (stereo not drawn) [Compound Z9, N-[4-(Azidomethyl)phenyl]-2-(hydroxycarbamoyl)-4-methyl-pentanamide]",IC50 at 48 h,[1]; A549 cells,> 100 µM
same,IC50 at 48 h,[1]; HEK293 cells,> 100 µM
same,IC50 at 48 h,[1]; HepG2 cells,> 100 µM
same,IC50,[2],0.0169 ± 0.0006 µM
same,IC50,[3],> 100 µM
same,IC50,[4],> 100 µM
same,IC50,[6]; read-out: Selectivity IC50 MMP1,> 100 µM
same,IC50,[7],> 100 µM
same,IC50,[8],> 100 µM
same,IC50,[9],1.6 ± 0.2 µM
same,IC50,[11],> 100 µM
"COc1ccc(S(=O)(=O)NCc2cn(Cc3ccc(NC(=O)C(CC(C)C)C(=O)NO)cc3)nn2)cc1 (stereo not drawn) [Compound 162, 2-(Hydroxycarbamoyl)-N-[4-[[4-[[(4-methoxyphenyl)sulfonylamino]methyl]triazol-1-yl]methyl]phenyl]-4-methyl-pentanamide]",IC50,[2],0.0019 ± 0.0001 µM
same,Final survival percentage of larvae,[12]; 12.5 μM,58%
same,Final survival percentage of larvae,[12]; 25 μM,64%
same,Final survival percentage of larvae,[12]; 50 μM,84%
same,Improvement in survival of larvae compared to negative control,"[12]; 50 μM, vs 3 CFU/Larva without treatment",40%
"CC(C)CC(C(=O)NO)C(=O)Nc1ccc(Cn2cc(CSc3ccc(Cl)cc3)nn2)cc1 (stereo not drawn) [Compound 136, N-[4-[[4-[(4-Chlorophenyl)sulfanylmethyl]triazol-1-yl]methyl]phenyl]-2-(hydroxycarbamoyl)-4-methyl-pentanamide]",IC50,[2],0.0014 ± 0.0001 µM
same,half-life at 1 μM,[5],3.3 ± 0.2 min
same,solubility at 5 min,[10],< 200 µM
"CC(C)CC(C(=O)NO)C(=O)Nc1ccc(Cn2cc(C3CSCN3C(=O)c3ccc(F)cc3)nn2)cc1 (stereo not drawn) [Hit L4, N-[4-[[4-[3-(4-Fluorobenzoyl)thiazolidin-4-yl]triazol-1-yl]methyl]phenyl]-2-(hydroxycarbamoyl)-4-methyl-pentanamide]",IC50,[2],0.0066 ± 0.0002 µM
"CC(C)CC(C(=O)NO)C(=O)Nc1ccc(Cn2nncc2CNC(=O)OC(C)(C)C)cc1 (stereo not drawn) [Compound 185, tert-butyl N-[[3-[[4-[[2-(hydroxycarbamoyl)-4-methyl-pentanoyl]amino]phenyl]methyl]triazol-4-yl]methyl]carbamate]",IC50,[2],0.0065 ± 0.0002 µM
"CC(C)CC(C(=O)NO)C(=O)Nc1ccc(Cn2cc(CNS(=O)(=O)c3ccc(NC(=O)OC(C)(C)C)cc3)nn2)cc1 (stereo not drawn) [Compound 208, tert-butyl N-[4-[[1-[[4-[[2-(hydroxycarbamoyl)-4-methyl-pentanoyl]amino]phenyl]methyl]triazol-4-yl]methylsulfamoyl]phenyl]carbamate]",IC50,[2],0.0042 ± 0.0002 µM
"CC(C)CC(C(=O)NO)C(=O)Nc1ccc(Cn2cc(CNS(=O)(=O)c3ccccc3)nn2)cc1 (stereo not drawn) [Compound 167, N-[4-[[4-(Benzenesulfonamidomethyl)triazol-1-yl]methyl]phenyl]-2-(hydroxycarbamoyl)-4-methyl-pentanamide]",IC50,[2],0.0055 ± 0.0003 µM
